From patent US20140274995A1, “PARENTERAL CEFTOLOZANE ANTIBIOTIC COMPOSITIONS” (Cubist Pharmaceuticals, Inc., priority 2013, published 2014)

Columns and labels:
[1] = Residual rate of ceftolozane without stabilizing agent after 3 days at 70° C., HPLC; assay type: physicochemical; settings: 100 mg of ceftolozane, no stabilizing agent
[2] = Comparison between stabilizing reagents, lyophilized ceftolozane samples stored at 60° C. for 7 days, HPLC purity; assay type: physicochemical; settings: without any stabilizing agent

residual rate [1]: 51.2% | overall decrease in purity [2]: 5.88%
SMILES: Cn1c(N)c(NC(=O)NCCN)c[n+]1CC1=C(C(=O)[O-])N2C(=O)[C@@H](NC(=O)/C(=N\OC(C)(C)C(=O)O)c3nsc(N)n3)[C@H]2SC1 [Ceftolozane, (6R,7R)-3-[(5-amino-4-{[(2-aminoethyl)carbamoyl]amino}-1-methyl-1H-pyrazol-2-ium-2-yl)methyl]-7-({(2Z)-2-(5-amino-1,2,4-thiadiazol-3-yl)-2-[(1-carboxy-1-methylethoxy)imino]acetyl}amino)-8-oxo-5-thia-1-azabicyclo[4.2.0]oct-2-ene-2-carboxylate]
